Entries after “also recorded” stand apart in the source; their conditions may differ. Like-named read-outs stand apart in the source and are kept apart here. Where a SMILES comes first, the peptide text is derived from it. Bridges are numbered along the chain shown (N, C = ends).
Assays:
[1] = test system: chick α7 nAChRs; details: cited from earlier work
[2] = target: α7-nAChR; details: read-out: α7-nAChR affinity (Ki); ref: previously reported, citation number not given; cited from earlier work
[3] = test system: hα7; details: ref: more recent studies, citation number not given, cited from earlier work
[4] = test system: BzATP-induced release of IL-1β from human monocytic THP-1 cells; test: BzATP-induced IL-1β release by LPS-primed human monocytic THP-1 cells (ELISA); type: cell-based; details: for Effect on the inhibitory effect of ACh on BzATP-induced IL-1β release: LPS 1 μg/mL 5 h, BzATP 100 μM 40 min; for Effect on BzATP-induced IL-1β release in the absence of ACh: LPS-primed THP-1
Experimental: THP-1 cells were primed with lipopolysaccharide (LPS; 1 μg/mL, 5 h) followed by stimulation with the P2X7 receptor agonist BzATP (2′/3′-O-(4-benzoylbenzoyl)-adenosine-5′-triphosphate, tri(triethylammonium) salt) for 40 min to induce IL-1β release, which was quantified by ELISA.
Experiments on human monocytic THP-1 cells (German Collection of Microorganisms and Cell Cultures, Braunschweig, Germany, Cat# ACC16) were performed as described before. […] The supernatants were collected and stored for later IL-1β measurements using the Human IL-1β/IL-1F2 DuoSet ELISA from R&D Systems (Minneapolis MN, USA, Cat# DY201). Cell viability was assessed by measuring lactate dehydrogenase (LDH) activity in the supernatants using the CytoTox 96 Non-Radioactive Cytotoxicity Assay (Promega, Madison WI, USA; Cat# G1780). LDH activities were expressed as a percentage of total LDH activity from lysed control cells. Data on the BzATP-induced IL-1β release and LDH activity were analyzed using SPSS (Version 29.0.2.0, IBM, Armonk, NY, United States) and visualized using Inkscape version 0.48.5 r10040 (Free and Open Source Software licensed under the GPL). The data were analyzed first by the Friedman test.

[5] = target: T1, hα9 nAChRs (Homo sapiens, UniProt Q9UGM1); test: Two-electrode voltage clamp, compound-evoked currents at hα9 nAChRs in Xenopus laevis oocytes; type: cell-based; details: compound applied alone
T1 construct: host or cells: Xenopus laevis oocytes, cRNA-injected

[6] = target: T2, hα7 nAChRs (Homo sapiens, UniProt P36544); test: Two-electrode voltage clamp, compound-evoked currents at hα7 nAChRs in Xenopus laevis oocytes; type: cell-based; details: compound applied alone
T2 construct: host or cells: Xenopus laevis oocytes, cRNA-injected (10 ng)
Experimental: Additionally, five compounds of the series were tested on the homomeric hα7 and hα9 nAChRs.
(§1) The protocols were approved by the Animal Ethics Committees of the Victor Chang Cardiac Research Institute, Sydney, and the University of Wollongong (project number AE 20/17). Human α9 and α10 nAChR clones were obtained from OriGene (Rockville, MD, USA) and subcloned into the pT7TS vector. The human α7 nAChR clone, in the plasmid pMXT, was kindly provided by J. Lindstrom (University of Pennsylvania, USA). Constructs of human nAChR subunits were linearized and used for in vitro cRNA transcription with the SP6/T7 mMessage mMachine transcription kit (AMBION, Forster City, CA, USA).
(§2) The cRNA concentration was verified spectrophotometrically and by gel electrophoresis.
(§3) Electrophysiological recordings were conducted 2–5 days after cRNA injection using a HiClamp automated two-electrode voltage-clamp screening system (MultiChannel Systems GmbH, Reutlingen, Germany) with a holding potential of –80 mV. To prevent the activation of endogenous Ca^2+-activated chloride channels due to the Ca^2+ permeability of α9-containing nAChRs, oocytes were preincubated with 100 μM BAPTA-AM for approximately 3 h.

[7] = target: T3, hα9α10 nAChRs (Homo sapiens, UniProt Q9GZZ6+Q9UGM1); test: Two-electrode voltage clamp, inhibition of ACh-evoked currents at hα9α10 nAChRs expressed in Xenopus laevis oocytes; type: cell-based
T3 construct: host or cells: Xenopus laevis oocytes, cRNA-injected (α9:α10 cRNA ratio 1:1)
Excerpt: as §1, §2, §3
For concentration–response experiments assessing modulation of ACh-evoked responses, oocytes were initially superfused with ND96 or ND115 solution, depending on the receptor subtype. […] After ACh application, a 3 min washout was performed. Oocytes were then incubated with the test compound for 5 min, followed by coapplication of the compound and ACh in a continuously flowing bath solution. All compounds were prepared in ND96 or ND115 with 0.1% bovine serum albumin (BSA).

[8] = target: T2, hα7 nAChRs; test: Two-electrode voltage clamp, inhibition of ACh-evoked currents at hα7 nAChRs in Xenopus laevis oocytes; type: cell-based
[9] = target: T3, hα9α10 nAChRs; test: Two-electrode voltage clamp, compound-evoked currents (compound applied alone) at hα9α10 nAChRs in Xenopus laevis oocytes; type: cell-based; details: compound applied alone (300 pM to 30 μM), normalized to response at highest concentration
Excerpt: as §1, §2, §3
Concentration–response experiments assessing compound-evoked currents were performed by initially superfusing α9-containing nAChRs oocytes with ND115 solution. Test compounds were then applied at concentrations ranging from 300 pM to 30 μM, followed by a 3 min washout period.

[10] = target: T1, hα9 nAChRs; test: Two-electrode voltage clamp, inhibition of ACh-evoked currents at hα9 nAChRs in Xenopus laevis oocytes; type: cell-based
[11] = target: T3, hα9α10 nAChRs; test: cell-based

T3 sequence (Q9UGM1 26-479 limits assumed): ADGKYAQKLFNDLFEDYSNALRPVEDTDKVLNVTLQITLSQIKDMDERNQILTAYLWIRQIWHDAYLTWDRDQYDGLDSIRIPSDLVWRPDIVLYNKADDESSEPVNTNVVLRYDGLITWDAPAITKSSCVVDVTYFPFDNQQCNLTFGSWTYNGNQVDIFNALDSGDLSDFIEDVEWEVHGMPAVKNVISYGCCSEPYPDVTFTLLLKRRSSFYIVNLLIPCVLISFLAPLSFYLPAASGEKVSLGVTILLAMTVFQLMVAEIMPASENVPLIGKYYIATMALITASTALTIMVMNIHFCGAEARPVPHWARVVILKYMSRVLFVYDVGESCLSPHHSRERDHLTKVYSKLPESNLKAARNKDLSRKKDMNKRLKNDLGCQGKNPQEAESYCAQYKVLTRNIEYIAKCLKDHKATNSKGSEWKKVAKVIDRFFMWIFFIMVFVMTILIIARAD
T3 sequence (Q9GZZ6 25-450): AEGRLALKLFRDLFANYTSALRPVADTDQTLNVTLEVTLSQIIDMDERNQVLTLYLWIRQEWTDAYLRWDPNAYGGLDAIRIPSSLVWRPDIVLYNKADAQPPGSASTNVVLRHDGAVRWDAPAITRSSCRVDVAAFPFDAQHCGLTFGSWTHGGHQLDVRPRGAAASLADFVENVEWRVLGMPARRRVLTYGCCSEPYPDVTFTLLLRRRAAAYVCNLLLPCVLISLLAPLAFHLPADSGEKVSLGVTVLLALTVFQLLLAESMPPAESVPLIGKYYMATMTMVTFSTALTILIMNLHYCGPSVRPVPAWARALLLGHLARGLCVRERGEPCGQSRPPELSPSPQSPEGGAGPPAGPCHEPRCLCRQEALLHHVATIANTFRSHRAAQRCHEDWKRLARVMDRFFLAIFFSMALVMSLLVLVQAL
T1 sequence (Q9UGM1 26-479 limits assumed): as the sequence (Q9UGM1 26-479 limits assumed) above
T2 sequence (P36544 23-502): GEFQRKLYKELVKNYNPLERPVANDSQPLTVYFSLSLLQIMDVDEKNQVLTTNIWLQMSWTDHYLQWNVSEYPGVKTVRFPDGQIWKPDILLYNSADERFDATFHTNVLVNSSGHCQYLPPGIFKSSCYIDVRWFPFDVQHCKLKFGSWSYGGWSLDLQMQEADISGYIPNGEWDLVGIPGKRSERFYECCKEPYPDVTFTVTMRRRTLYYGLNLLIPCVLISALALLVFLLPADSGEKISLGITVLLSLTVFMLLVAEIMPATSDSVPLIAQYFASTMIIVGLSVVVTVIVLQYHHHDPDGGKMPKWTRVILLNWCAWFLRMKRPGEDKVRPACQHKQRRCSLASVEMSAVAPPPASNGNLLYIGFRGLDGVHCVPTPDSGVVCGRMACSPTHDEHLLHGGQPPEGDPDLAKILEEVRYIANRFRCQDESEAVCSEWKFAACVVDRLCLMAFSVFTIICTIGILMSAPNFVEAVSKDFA

## CC[N+](CC)(CC)CCOc1ccc(/C=C/c2ccccc2)cc1 [Compound 1, 2-triethylammonium ethyl ether of 4-stilbenol]
[1]; chick α7, 100 μM ACh, ref: citation number not given
  IC50: 90 to 110 nM
[1]; wild-type chick α7 nAChRs, ref: previous findings, citation number not given
  Currents evoked when applied alone: did not evoke currents
[2]
  Ki: 104 nM
[3]; 200 μM ACh
  IC50: 41 nM
[3]; 1 mM ACh
  IC50: 1990 nM
[4]; compound 100 pM + ACh 10 μM
  Effect on the inhibitory effect of ACh on BzATP-induced IL-1β release: efficiently antagonized the inhibitory effect of ACh
[4]; compound 100 pM
  Effect on BzATP-induced IL-1β release in the absence of ACh: only slightly reduced
[4]; compound 100 nM + ACh 10 μM
  Effect on the inhibitory effect of ACh on BzATP-induced IL-1β release: efficiently antagonized the inhibitory effect of ACh
[4]; compound 100 nM
  Effect on BzATP-induced IL-1β release in the absence of ACh: only slightly reduced; also recorded: failed to reduce IL-1β release

## C[N+](C)(CCOc1ccc(COc2ccccc2)cc1)C1CCCCC1.[I-] [Compound 22, N,N-Dimethyl-N-(2-(4-(phenoxymethyl)phenoxy)ethyl)cyclohexanaminium Iodide]
[5]
  EC50: did not elicit any current; also recorded: lacked agonist activity; also recorded: No activity
[6]
  EC50: lacked agonist activity; also recorded: No activity
[7]
  IC50 ratio to Cpd 1: 0.3
[7]; 6 μM ACh
  n H (Hill coefficient of inhibition): 1.7
[7]; 6 μM ACh, 5 min preincubation with compound, holding potential −80 mV
  IC50: 16 nM
[8]
  IC50 ratio to Cpd 1: 0.8
[8]; 100 μM ACh
  n H (Hill coefficient of inhibition): 1.5
[8]; 100 μM ACh, 5 min preincubation
  IC50: 336 nM
[9]
  EC50: failed to activate; also recorded: lacked agonist activity; also recorded: No activity
[10]
  IC50 ratio to Cpd 1: 0.1
[10]; 50 μM ACh
  n H (Hill coefficient of inhibition): 1.5
[10]; 50 μM ACh, 5 min preincubation
  IC50: 26.2 nM
[4]; compound 100 pM + ACh 10 μM
  Effect on the inhibitory effect of ACh on BzATP-induced IL-1β release: efficiently antagonized the inhibitory effect of ACh
[4]; compound 100 pM
  Effect on BzATP-induced IL-1β release in the absence of ACh: minor reduction
[4]; compound 100 nM + ACh 10 μM
  Effect on the inhibitory effect of ACh on BzATP-induced IL-1β release: mild antagonistic effects
[4]; compound 100 nM
  Effect on BzATP-induced IL-1β release in the absence of ACh: effectively and significantly inhibited

## CC[C@H](C)[C@@H]1NC(=O)[C@H](CC(=O)O)NC(=O)[C@@H]2CCCN2C(=O)[C@H](CC(N)=O)NC(=O)[C@H](CC(N)=O)NC(=O)[C@H](C(C)C)NC(=O)[C@H](CO)NC(=O)[C@@H]2CSSC[C@H](NC(=O)CN)C(=O)N[C@@H](CSSC[C@@H](C(N)=O)NC1=O)C(=O)N[C@@H](CO)C(=O)N[C@@H](Cc1c[nH]cn1)C(=O)N1CCC[C@H]1C(=O)N[C@@H](C)C(=O)N2 [α-conotoxin Mr1.1] (H-GCCSHPACSVNNPDIC-NH2; disulfide 2-8, 3-16)
[11]
  Hill coefficient (n H): 1.3

## CC[C@H](C)[C@@H]1NC(=O)[C@H](CC(=O)O)NC(=O)[C@@H]2CCCN2C(=O)[C@H](CC(N)=O)NC(=O)[C@H](CC(N)=O)NC(=O)[C@H](C(C)C)NC(=O)[C@H](CO)NC(=O)[C@@H]2CSSC[C@H](NC(=O)CN)C(=O)N[C@@H](CSSC[C@@H](C(N)=O)NC1=O)C(=O)N[C@@H](CO)C(=O)N[C@@H](Cc1cnc[nH]1)C(=O)N1CCC[C@H]1C(=O)N[C@@H](C)C(=O)N2 [α-conotoxin Mr1.1] (H-GCCSHPACSVNNPDIC-NH2; disulfide 2-8, 3-16)
[11]
  IC50: 82.9 nM
